Like-named read-outs stand apart in the source and are kept apart here. Numbered stars: 1 amine (or outer) side, 2 acyl side, 3 side chain; on linkers, the order of the positions; unused ones are H or OH. Bridge positions count the residues as written; N and C are the ends. Square brackets hold non-standard residues; d marks the D form. Peptide text beside a SMILES is read from it. * marks the point of attachment. Phe(3-CH2NH2) = O=C([C@H](Cc1cccc(CN[*:3])c1)N[*:1])[*:2]; DOTA = O=C(O)CN1CCN(CC(=O)O)CCN(CC(=O)*)CCN(CC(=O)O)CC1; X2 = CC(C)(CN)CC[C@H](N[*:1])C(=O)[*:2]; X1 = CC(CN)CC[C@H](N[*:1])C(=O)[*:2]; Thr(ol) = C[C@@H](O)[C@H](N)CO
Molecular target: T1, SSTR2 (Homo sapiens, UniProt P30874)
T1 construct: host or cells: CHO-K1
T1 sequence (P30874 whole entry): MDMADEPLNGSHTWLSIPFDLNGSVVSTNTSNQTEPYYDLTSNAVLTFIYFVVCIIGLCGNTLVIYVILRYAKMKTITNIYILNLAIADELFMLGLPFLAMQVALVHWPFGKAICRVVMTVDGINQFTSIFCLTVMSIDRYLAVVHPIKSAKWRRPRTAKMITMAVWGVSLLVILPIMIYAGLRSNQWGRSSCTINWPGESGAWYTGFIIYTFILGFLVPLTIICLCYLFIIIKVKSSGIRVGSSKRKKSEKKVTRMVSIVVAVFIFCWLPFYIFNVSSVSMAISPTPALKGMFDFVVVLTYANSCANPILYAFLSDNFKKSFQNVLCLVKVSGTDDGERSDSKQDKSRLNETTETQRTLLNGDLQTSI
Assay: competitive radioligand binding assay (125I-Tyr11-Somatostatin-14) on membranes of SSTR2-overexpressing CHO-K1 cells
Details: for EC50: radioligand 125I-Tyr11-Somatostatin-14, SSTR2 CHO-K1 cell membrane; for Bottom: parameter A, bottom of fitted % Effect curve; for Top: parameter B, top of fitted % Effect curve; for Hill slope: parameter D of fitted curve
Description: A competitive radioligand binding assay is utilized to measure the binding affinity of the somatostatin analogs of Formula II of the present invention. SSTR2-overexpressing CHO-K1 cells (Hunter Express SSTR2 CHO-K1; DiscoverX) are used in the radioligand competitive binding assay, with ^125I-Tyr^11-Somatostatin-14 (PerkinElmer) as the radioligand. The assay is performed as follows:
SSTR2-overexpressing CHO-K1 cells (from Discover X) were cultured in complete medium (F12 basal medium with 10% FBS and 1% P/S [100 U/mL penicillin and 100 µg/mL streptomycin]) in a 37°C incubator with 5% CO2. When the cell confluency reached 80-90%, the cells were washed twice with pre-cooled PBS. The cells were then scraped off with a cell scraper and transferred to a 50 mL centrifuge tube, followed by centrifugation at 500×g and 4°C for 10 minutes. The supernatant was discarded, and the cell pellet was retained. Cell membrane lysis buffer (containing 25 mM HEPES, 1 mM EDTA, 2 mM MgCl2, and 1× protease inhibitor, pH = 7.4) was added at a ratio of 4 × 10^7 cells/10 mL and placed on ice for 10 minutes. The cells were then disrupted using an IKA disruptor. The operating procedure was 15,000 rpm for 10 seconds, repeated twice. The disrupted cell suspension was centrifuged at 4°C and 650×g for 5 minutes. The supernatant was transferred to a new centrifuge tube and centrifuged at 13,000 rpm and 4°C for 30 minutes. The supernatant was discarded, and the cell membrane pellet was resuspended in 1.6 mL of resuspension buffer, which was cell membrane lysis buffer supplemented with 10% sucrose. The cell membrane lysis buffer was repeatedly aspirated 4 times with a 27-gauge needle to break the DNA. The cell membrane extract was measured for protein concentration using the BCA method and aliquoted and stored at -80°C.
• (1) Dilution of Compound: The assay buffer used contains 50 mM Hepes, 5 mM MgCl2, 1 mM CaCl2, and 0.5% BSA, pH = 7.4, and the buffer is filtered. The assay buffer is kept at 4°C. The ligand solution is serially diluted using an Agilent Bravo. Each test compound is diluted […] in succession. The eight binding concentrations of typical compounds are: 50 nM, 12.5 nM, 3.13 nM, 0.78 nM, 0.20 nM, 0.05 nM, 12.2 pM, and 3.05 pM. The affinity of each concentration is measured twice. Transfer 1 µL of each diluted compound to the corresponding wells of a 96-well V-bottom plate. • (2) Preparation of 125I-SST: The stock solution of 125I-SST was diluted to 3 nM (10×) with binding buffer (containing 50 mM Hepes, 5 mM MgCl2, 1 mM CaCl2, and 0.5% BSA, pH = 7.4, stored at 4°C). Transfer 10 µL of the solution to the corresponding compound well. • (3) Binding Experiment: The extracted cell membrane was diluted to 2.5 µg/90 µL with binding buffer and added to the corresponding wells. The mixture was incubated at 500 rpm on a 25°C shaker for 2 hours. The membrane complex was collected into a 0.5% PEI pre-coated GF/B plate using a Cell Harvester, and rinsed 3 times per well with 200 µL of pre-cooled buffer (4°C) (the same buffer used to dilute the compound). The plate was dried at 37°C for 2 hours. After adding 50 µL of liquid scintillation fluid (MicroScint20, Perkin Elmer) to each well and incubating for 30 minutes, the radioactivity was measured using a Topcount plate reader for 30 seconds per well.
For each compound, its 8-point reading data (2× of 8 readings) were imported into XLfit software and fitted to the sigmoidal curve. The EC50 of the compound for SSTR2 was calculated based on the mathematically optimal sigmoidal dose-response model equation: y−A + ((B−A))/(1 + (((C)/(x)))^D) [formula] where A represents the bottom of the curve, B represents the top of the curve, C represents the relative EC50, D represents the Hill slope, y represents the percentage effect value (% Effect) of the curve fitting, and x represents the molar concentration.

[1] = concentration x calculated from the fit at y = 50% effect, read-out: Absolute EC50
[2] = parameter C of sigmoidal fit, 8 concentrations in duplicate, read-out: Relative EC50

Row | EC50 [1] [nM] | Bottom [%] | Top [%] | EC50 [2] [nM] | Hill slope | SMILES
1 | 0.071 | 11.7 | 99.9 | 0.091 | 1.07 | C[C@@H](O)[C@@H]1NC(=O)[C@H](C2CCCC(CN)C2)NC(=O)[C@@H](Cc2c[nH]c3ccccc23)NC(=O)[C@H](Cc2ccccc2)NC(=O)[C@@H](NC(=O)[C@H](N)Cc2ccccc2)CSSC[C@@H](C(=O)N[C@H](CO)[C@@H](C)O)NC1=O (single isomer, unassigned) [Compound 4]
2 |  | 10.8 | 99.5 |  | 1.08 | C[C@@H](O)[C@@H]1NC(=O)[C@H](C2CCCC(CN)C2)NC(=O)[C@@H](Cc2c[nH]c3ccccc23)NC(=O)[C@H](Cc2ccccc2)NC(=O)[C@@H](NC(=O)[C@H](N)Cc2ccccc2)CSSC[C@@H](C(=O)N[C@H](CO)[C@@H](C)O)NC1=O (single isomer, unassigned) [Compound 7p2]
3 | 0.74 |  |  | 1.3 |  | C[C@@H](O)[C@@H]1NC(=O)[C@H](CCCCCN)NC(=O)[C@@H](Cc2c[nH]c3ccccc23)NC(=O)[C@H](Cc2ccccc2)NC(=O)[C@@H](NC(=O)[C@H](N)Cc2ccccc2)CSSC[C@@H](C(=O)N[C@H](CO)[C@@H](C)O)NC1=O [Compound 1]
4 | 1 |  |  | 1.2 |  | C[C@@H](O)[C@@H]1NC(=O)[C@H](CCC(C)(C)CN)NC(=O)[C@@H](Cc2c[nH]c3ccccc23)NC(=O)[C@H](Cc2ccccc2)NC(=O)[C@@H](NC(=O)[C@H](N)Cc2ccccc2)CSSC[C@@H](C(=O)N[C@H](CO)[C@@H](C)O)NC1=O [Compound 2] (H-[dF]CF[dW][X2]TC[Thr(ol)]; disulfide 2-7)
5 | 0.25 |  |  | 0.29 |  | CC(CN)CC[C@@H]1NC(=O)[C@@H](Cc2c[nH]c3ccccc23)NC(=O)[C@H](Cc2ccccc2)NC(=O)[C@@H](NC(=O)[C@H](N)Cc2ccccc2)CSSC[C@@H](C(=O)N[C@H](CO)[C@@H](C)O)NC(=O)[C@H]([C@@H](C)O)NC1=O (some centres unmarked) [Compound 3] (H-[dF]CF[dW][X1]TC[Thr(ol)]; disulfide 2-7)
6 |  | 8.7 | 100.0 |  | 0.84 | C[C@@H](O)[C@@H]1NC(=O)[C@H](Cc2cccc(CN)c2)NC(=O)[C@@H](Cc2c[nH]c3ccccc23)NC(=O)[C@H](Cc2ccccc2)NC(=O)[C@@H](NC(=O)[C@H](N)Cc2ccccc2)CSSC[C@@H](C(=O)N[C@H](CO)[C@@H](C)O)NC1=O [Compound 5] (H-[dF]CF[dW][Phe(3-CH2NH2)]TC[Thr(ol)]; disulfide 2-7)
7 |  | 13.2 | 98.3 |  | 0.88 | C[C@@H](O)[C@H](NC(=O)[C@@H]1CSSC[C@H](NC(=O)[C@@H](Cc2ccccc2)NC(=O)CN2CCN(CC(=O)O)CCN(CC(=O)O)CCN(CC(=O)O)CC2)C(=O)N[C@@H](Cc2ccc(O)cc2)C(=O)N[C@H](Cc2c[nH]c3ccccc23)C(=O)N[C@@H](CCC(C)(C)CN)C(=O)N[C@@H]([C@@H](C)O)C(=O)N1)C(=O)O [Compound 6] ({DOTA}-[dF]CY[dW][X2]TCT-OH; disulfide 2-7; N-terminus and C-terminus assumed)

Source: patent EP4656654A1, “SOMATOSTATIN PEPTIDE ANALOGUE, CHELATE AND USE THEREOF” (Qianhangjiang Pharmaceutical Co., Ltd., priority 2023, dated 2025)
